Experimental data reported in patent US9732367B2, “Cell lines” (MEDIMMUNE LIMITED, priority 2012, dated 2017).
Square brackets hold non-standard residues; d marks the D form. Peptide text beside a SMILES is read from it. * marks the point of attachment. Dolaproine = CO[C@@H]([C@@H]1CCCN1)[C@@H](C)C(=O)O; Dil = CC[C@H](C)[C@H](NC)[C@@H](CC(=O)O)OC; NMe2Val = CC(C)[C@@H](C(=O)*)N(C)C

Key:
HCC1954 = assay: In vitro cytotoxicity assay, HCC1954; type: cell-based
Method: (§1) The ADC's generated as described above were tested for cytotoxic activity in SKOV3 and HCC1954 and PC3 tumor cell lines which are standard target cells for testing the activity of anti Her2 antibodies and ADC cell lines. SKOV3 and HCC1954 express high levels of Her2, while PC3 expresses Her2 at low level: the cytotoxic activity was calculated as the concentration of ADC to kill 50% of the tumor cells in vitro as described in Table 5.
(§2) The ADC's generated as described above were tested for cytotoxic activity in SKOV3 and a PC3 tumor cell lines which are standard target cells for testing the activity of anti Her2 antibodies and ADC cell lines. SKOV3 cells express high levels of Her2, while PC3 cells express Her2 at low level. […] The drug treated cells are incubated at 37 C for 3 days in 100 ul medium. 20 ul of Alamar Blue (Life Technologies) is added to each well and the cells incubated for 16-24 hours and an OD 450 nm determined for each well. The cytotoxic activity of the conjugates was calculated as the concentration of ADC to kill 50% of the tumor cells in vitro as described in Table 8.

SKOV3 = assay: In vitro cytotoxicity assay, SKOV3; type: cell-based, human
Method: as §1
(§3) The Her2 over expressing cell lines, SKBR3 and SKOV3 were compared to PC3, a cell line that expresses very low level of Her2.
as §2

SKBR3 = assay: In vitro cytotoxicity assay, SKBR3; type: cell-based
Method: as §3, §2

BT474 = assay: In vitro cytotoxicity assay, BT474; type: cell-based; settings: Table 8, 3 days, Alamar Blue
[1] = Table 5, positional 4D5-AF ADCs

Structure (SMILES): CC[C@H](C)[C@@H]([C@@H](CC(=O)N1CCC[C@H]1[C@H](OC)[C@@H](C)C(=O)N[C@@H](Cc1ccccc1)C(=O)O)OC)N(C)C(=O)[C@@H](NC(=O)[C@H](C(C)C)N(C)C)C(C)C [AF, Auristatin F] (NMe2Val-V[Dil][Dolaproine]F-OH)
- EC50 (HCC1954; [1]): 18.8 nM
- EC50 (HCC1954; Table 8, 3 days, Alamar Blue): 12.9 nM
- EC50 (SKOV3; [1]): 69.4 nM
- EC50 (SKOV3; Table 6): 287 nM
- EC50 (SKOV3; Table 8, 3 days, Alamar Blue): 23.5 nM
- EC50 (SKBR3; Table 6): 71 nM
- EC50 (SKBR3; Table 8, 3 days, Alamar Blue): 33.3 nM
- EC50 (BT474): 58.8 nM
